These results are taken from PubChem BioAssay (NCI).

Test systems include SK-MEL-28 melanoma; SF-295 CNS; 786-0 renal; COLO 205 colon; A498 renal; CCRF-CEM leukemia; SNB-19 CNS; MALME-3M melanoma; NCI-H522 lung; MDA-MB-435.
Common to all, as to assay: NCI tumour cell line growth inhibition, 48 h

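These data come from cells grown in 96-well plates and exposed to compound for 48 hours at five concentrations. The concentration for 50% growth inhibition is given as GI50. At the TGI there is no net growth.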

As to `COc1ccc(/C=c2\sc3nnc(CCC(=O)Nc4cccc(C(F)(F)F)c4)n3c2=O)cc1`, the TGI in the assay with SK-MEL-28 melanoma is more than 100 µM; in the assay on SF-295 CNS, more than 100 µM; with 786-0 renal it was more than 100 µM; with COLO 205 colon, more than 100 µM; in the assay on A498 renal, more than 100 µM; with CCRF-CEM leukemia it was 90.3 µM. The TGI in the assay on SNB-19 CNS and with MALME-3M melanoma was more than 100 µM throughout.

Regarding `CN=c1ss/c(=N\C(=S)N(C)C)n1C1CCCCC1`, the TGI was more than 31.6 µM with SK-MEL-28 melanoma; more than 31.6 µM in the assay with NCI-H522 lung; more than 31.6 µM in the assay with SF-295 CNS; more than 10 µM with 786-0 renal; more than 31.6 µM in the assay on COLO 205 colon; more than 31.6 µM in the assay with A498 renal. Moreover, the TGI with CCRF-CEM leukemia, in the assay on SNB-19 CNS and with MALME-3M melanoma was more than 31.6 µM in each case.

Consider `COC(=O)[C@H]1CC(=O)C=C2CCCC21` (stereo partly specified), for which the TGI with SK-MEL-28 melanoma, with NCI-H522 lung, with SF-295 CNS, in the assay on 786-0 renal, in the assay on COLO 205 colon and in the assay with A498 renal was more than 100 µM throughout. Further, the TGI in the assay with CCRF-CEM leukemia, in the assay on SNB-19 CNS and with MALME-3M melanoma was more than 100 µM each time.

`CC(N)CN.CC(N)CN.[Cl-].[O]=[Os+2]=[O]` (stereo unspecified): the GI50 is more than 100 µM in the assay with SK-MEL-28 melanoma; 30.9 µM in the assay with NCI-H522 lung; more than 100 µM in the assay on SF-295 CNS; 64.5 µM with 786-0 renal; 70.2 µM with COLO 205 colon; more than 100 µM with SNB-19 CNS. Also, the GI50 in the assay on MALME-3M melanoma was more than 100 µM. Moreover, the TGI in the assay with SK-MEL-28 melanoma, in the assay on NCI-H522 lung, in the assay with SF-295 CNS, with 786-0 renal, with COLO 205 colon and in the assay with SNB-19 CNS was more than 100 µM in each case. Moreover, the TGI in the assay with MALME-3M melanoma was more than 100 µM.

`COC(=O)CSc1n[nH]c(-c2ccccc2)n1`: the TGI with SK-MEL-28 melanoma, with NCI-H522 lung, in the assay with SF-295 CNS, with 786-0 renal, in the assay on COLO 205 colon and with A498 renal was more than 100 µM in each case. The TGI in the assay on CCRF-CEM leukemia, in the assay on SNB-19 CNS and in the assay on MALME-3M melanoma was more than 100 µM throughout.

On to `CC1(C)C(=O)CCC(=O)C(C)(C)C2=CC=C(O2)C(C)(C)C(=O)CCC(=O)C(C)(C)C2=CC=C1O2`, for which the TGI with SK-MEL-28 melanoma, with NCI-H522 lung, in the assay on SF-295 CNS, in the assay on 786-0 renal, in the assay with COLO 205 colon and in the assay on A498 renal was more than 100 µM each time. The TGI with CCRF-CEM leukemia, with SNB-19 CNS and with MALME-3M melanoma was more than 100 µM throughout.

Regarding `O=S1c2ccccc2N=C(c2ccc3ccccc3c2)CC1c1ccccc1F` (stereo unspecified), the TGI in the assay on SK-MEL-28 melanoma was more than 100 µM; in the assay on NCI-H522 lung it was more than 100 µM; in the assay on SF-295 CNS, more than 100 µM; in the assay with 786-0 renal, more than 100 µM; in the assay with COLO 205 colon, more than 100 µM; with A498 renal, 79.7 µM. Further, the TGI in the assay with CCRF-CEM leukemia, in the assay on SNB-19 CNS and in the assay on MALME-3M melanoma was more than 100 µM each time.

With `COc1ccc2oc(-c3cc4cc(OC)ccc4o3)cc2c1`, the TGI with SK-MEL-28 melanoma, with NCI-H522 lung, in the assay on SF-295 CNS, in the assay on 786-0 renal, in the assay with COLO 205 colon and with CCRF-CEM leukemia was more than 100 µM in each case. In addition, the TGI in the assay with SNB-19 CNS and with MALME-3M melanoma was more than 100 µM throughout.

On to `CCOC(=O)C/C(N)=C(\C#N)C(=O)OCC`, for which the TGI with SK-MEL-28 melanoma, in the assay with NCI-H522 lung, in the assay on SF-295 CNS, with 786-0 renal, in the assay on COLO 205 colon and with A498 renal was more than 100 µM in each case. Moreover, the TGI in the assay with CCRF-CEM leukemia, with SNB-19 CNS and in the assay with MALME-3M melanoma was more than 100 µM each time.

Take `CC(C)(C)C1CCP(=O)(c2ccccc2)CC1` (stereo unspecified): the TGI in the assay on SK-MEL-28 melanoma, in the assay on NCI-H522 lung, with SF-295 CNS, in the assay on 786-0 renal, in the assay with COLO 205 colon and in the assay on A498 renal was more than 100 µM in each case. Moreover, the TGI in the assay on CCRF-CEM leukemia, in the assay on SNB-19 CNS and with MALME-3M melanoma was more than 100 µM throughout.

As for `CC(C)(C)C1CCC(CI)(N=[N+]=[N-])CC1` (stereo unspecified), the TGI in the assay with NCI-H522 lung, with SF-295 CNS, in the assay with 786-0 renal, in the assay on COLO 205 colon, in the assay on A498 renal and with CCRF-CEM leukemia was more than 100 µM in each case. The TGI in the assay with SNB-19 CNS and in the assay with MALME-3M melanoma was more than 100 µM throughout.

`Cc1ccc(S(=O)(=O)Nc2cccc(C)c2C)cc1`: the TGI in the assay with SK-MEL-28 melanoma is 81.5 µM; in the assay on SF-295 CNS it was more than 100 µM; in the assay on 786-0 renal, more than 100 µM; in the assay on COLO 205 colon, more than 100 µM; in the assay with A498 renal it was more than 100 µM; in the assay with CCRF-CEM leukemia, more than 100 µM. Also, the TGI in the assay on SNB-19 CNS and in the assay on MALME-3M melanoma was more than 100 µM throughout.

Regarding `CN(C)CCCNC(=O)c1cccc2nc3ccccc3nc12`, the TGI with SK-MEL-28 melanoma was 38.5 µM; in the assay with NCI-H522 lung it was more than 100 µM; in the assay with SF-295 CNS, more than 55.4 µM; in the assay on 786-0 renal it was more than 100 µM; with COLO 205 colon, more than 48.3 µM; in the assay with A498 renal, 39.6 µM. The TGI in the assay on SNB-19 CNS was more than 100 µM; in the assay with MALME-3M melanoma, 19.3 µM.

In the case of `CC1=C(C(=O)Nc2cccc(C(F)(F)F)c2)C(c2ccccc2F)C(C(=O)Nc2cccc(C(F)(F)F)c2)=C(C)N1`, the TGI turned out to be 23.7 µM in the assay with SK-MEL-28 melanoma; 17.5 µM with NCI-H522 lung; 20.3 µM with SF-295 CNS; 19.4 µM in the assay on 786-0 renal; 20.5 µM in the assay on COLO 205 colon; 24.3 µM in the assay on A498 renal. In addition, the results for the TGI with CCRF-CEM leukemia, in the assay on SNB-19 CNS and with MALME-3M melanoma were 12.4 µM, 25.8 µM and 21.8 µM, respectively.

`COc1ccc(-c2nnc(Nc3nc(O)c(C4=c5cc(OC(F)(F)F)ccc5=NC4=O)s3)o2)cc1`: the GI50 is 17.8 µM in the assay on SK-MEL-28 melanoma; 32.4 µM in the assay with NCI-H522 lung; 6.12 µM with SF-295 CNS; 11.2 µM in the assay on 786-0 renal; 25.4 µM in the assay on COLO 205 colon; 25.5 µM with CCRF-CEM leukemia. For the same compound, the GI50 with SNB-19 CNS was 9.67 µM; with MDA-MB-435 it was 7.46 µM. The TGI with SK-MEL-28 melanoma is more than 100 µM; in the assay with NCI-H522 lung it was more than 100 µM; in the assay on SF-295 CNS, more than 100 µM; in the assay with 786-0 renal, 24.3 µM; in the assay on COLO 205 colon it was more than 100 µM; in the assay on CCRF-CEM leukemia it was 51.1 µM. Besides, the figures for the TGI with SNB-19 CNS and in the assay with MDA-MB-435 were 31.2 µM and more than 100 µM, respectively.

`C=C(CS(=O)(=O)c1ccccc1)C(=O)OCC`: the TGI stood at 28.9 µM in the assay on SK-MEL-28 melanoma; 12.9 µM with NCI-H522 lung; 32 µM in the assay on SF-295 CNS; 31.9 µM in the assay with 786-0 renal; 38.9 µM in the assay with COLO 205 colon; 12.2 µM with CCRF-CEM leukemia. The figures for the TGI in the assay with SNB-19 CNS and in the assay on MALME-3M melanoma were 37.9 µM and 39.1 µM, respectively.

`Cc1nn2c(=O)n(-c3cccc(-n4nnc5c(-c6ccccc6)c(C)nn5c4=O)c3C)nnc2c1-c1ccccc1`: the TGI in the assay on NCI-H522 lung was 33.2 µM; in the assay with SF-295 CNS, more than 100 µM; in the assay with 786-0 renal, more than 100 µM; in the assay on COLO 205 colon, 42.7 µM; in the assay on A498 renal it was more than 100 µM; in the assay with CCRF-CEM leukemia, more than 100 µM. The TGI in the assay with SNB-19 CNS is more than 100 µM; in the assay on MALME-3M melanoma, 56 µM.

`COc1cc(-c2ccccc2)c(OC)cc1CCl`: the TGI with NCI-H522 lung, in the assay with SF-295 CNS, in the assay on 786-0 renal, with COLO 205 colon, with A498 renal and with CCRF-CEM leukemia was more than 100 µM in each case. The TGI with SNB-19 CNS and in the assay with MALME-3M melanoma was more than 100 µM each time.

With `CC[C@@]1(OC(=O)C(N)CCC(=O)O)C(=O)OCc2c1cc1n(c2=O)Cc2cc3ccccc3nc2-1` (stereo partly specified), the TGI with SK-MEL-28 melanoma came to 51.8 µM; with NCI-H522 lung, 2.03 µM; in the assay on SF-295 CNS, 0.446 µM; in the assay with 786-0 renal it was 0.159 µM; with COLO 205 colon it was 3.03 µM; in the assay on A498 renal it was 0.965 µM. In addition, the TGI in the assay with CCRF-CEM leukemia is 0.247 µM; with SNB-19 CNS, more than 30.7 µM; with MALME-3M melanoma, 2.79 µM.

Consider `O=NNc1ccc(Sc2ccc3ccccc3c2)cn1`, for which the TGI in the assay on SK-MEL-28 melanoma is more than 100 µM; in the assay on NCI-H522 lung it was 54 µM; in the assay with SF-295 CNS it was more than 100 µM; in the assay on 786-0 renal it was more than 100 µM; in the assay with COLO 205 colon it was more than 100 µM; in the assay with A498 renal, more than 100 µM. Also, the TGI in the assay with CCRF-CEM leukemia was 59.6 µM; in the assay on SNB-19 CNS it was more than 100 µM; with MALME-3M melanoma it was 35.6 µM.

Consider `CCOc1ccc(/C=N\N2C(=O)c3ccccc3C2=O)cc1`, for which the TGI in the assay on SK-MEL-28 melanoma, with SF-295 CNS, in the assay with 786-0 renal, in the assay with A498 renal, in the assay with CCRF-CEM leukemia and in the assay with SNB-19 CNS was more than 100 µM throughout. Moreover, the TGI in the assay with MALME-3M melanoma is more than 100 µM.
